2 compounds from ChEMBL document CHEMBL1201862, “PubChem BioAssay data set” (2004) can be followed below.

Active and inactive are the calls of the source.

For experiment [1], the target named is T1, High affinity choline transporter 1 (Homo sapiens, UniProt Q9GZV3).
T1 sequence (Q9GZV3 whole entry): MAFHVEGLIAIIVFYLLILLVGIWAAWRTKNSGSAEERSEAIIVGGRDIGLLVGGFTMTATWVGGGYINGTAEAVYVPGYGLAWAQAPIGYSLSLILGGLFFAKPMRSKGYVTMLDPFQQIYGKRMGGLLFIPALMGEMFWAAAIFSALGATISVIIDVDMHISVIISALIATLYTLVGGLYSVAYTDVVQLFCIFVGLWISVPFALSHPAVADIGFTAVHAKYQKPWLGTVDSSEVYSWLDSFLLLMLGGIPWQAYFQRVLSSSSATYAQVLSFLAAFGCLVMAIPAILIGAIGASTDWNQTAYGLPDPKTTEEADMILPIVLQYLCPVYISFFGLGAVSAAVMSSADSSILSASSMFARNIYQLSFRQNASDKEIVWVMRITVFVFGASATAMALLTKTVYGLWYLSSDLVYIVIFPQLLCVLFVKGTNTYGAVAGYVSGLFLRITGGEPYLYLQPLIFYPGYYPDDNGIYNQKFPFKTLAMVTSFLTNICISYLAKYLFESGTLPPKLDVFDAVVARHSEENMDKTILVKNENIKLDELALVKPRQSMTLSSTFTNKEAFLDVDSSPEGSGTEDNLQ
Kind of experiment: CHT inhibitors, dose response, cell-based, 5-point CRC, membrane potential dye (AID 504840). The class given is functional.

In experiment [2] the test system is BJ. Kind of experiment: cytotoxicity toward BJ-TERT fibroblasts, dose response, cell-based, RAS-independent, luminescence (AID 1933). It is filed as functional. The conditions noted are these: Homo sapiens.
Experiment [3] deals with BJ. Kind of experiment: cells. The class given is functional, cell-based. To be noted: Homo sapiens.
Experiment [4] in a line: growth suppression of PTEN-null colon cells, dose response, cell-based, HCT116 PTEN knockout (AID 1047).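 Further: HCT116 colon tumor cells with PTEN knocked out; cells exposed to compound for 60 hours before readout; potency for loss of cell viability measured by luminescence.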 It is filed as functional.
Experiment [5] in a line: growth suppression of beta-catenin-knockout colon cells, dose response, cell-based, HCT116, human colon tumor (AID 1045).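 Further: HCT116 colon tumor cells with beta catenin knocked out; cells exposed to compound for 60 hours.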 It is filed as functional.
Experiment [6] concerns BJ. Kind of experiment: cytotoxicity toward BJ-TERT-LT-ST fibroblasts, dose response, cell-based, RAS-independent, luminescence (AID 1935).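 Further: BJ fibroblasts immortalized with TERT plus LT and ST oncogenes.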 To be noted: Homo sapiens. The class given is functional.
A short description of experiment [7]: cytotoxicity toward DRD oncogenic fibroblasts, dose response, cell-based, non-viral oncogenic, luminescence (AID 1934). It is filed as functional. The conditions noted are these: Homo sapiens.
In experiment [8] the target is T2, Replicative DNA helicase DnaB (Mycobacterium tuberculosis, UniProt P9WMR3).
T2 sequence (P9WMR3 whole entry): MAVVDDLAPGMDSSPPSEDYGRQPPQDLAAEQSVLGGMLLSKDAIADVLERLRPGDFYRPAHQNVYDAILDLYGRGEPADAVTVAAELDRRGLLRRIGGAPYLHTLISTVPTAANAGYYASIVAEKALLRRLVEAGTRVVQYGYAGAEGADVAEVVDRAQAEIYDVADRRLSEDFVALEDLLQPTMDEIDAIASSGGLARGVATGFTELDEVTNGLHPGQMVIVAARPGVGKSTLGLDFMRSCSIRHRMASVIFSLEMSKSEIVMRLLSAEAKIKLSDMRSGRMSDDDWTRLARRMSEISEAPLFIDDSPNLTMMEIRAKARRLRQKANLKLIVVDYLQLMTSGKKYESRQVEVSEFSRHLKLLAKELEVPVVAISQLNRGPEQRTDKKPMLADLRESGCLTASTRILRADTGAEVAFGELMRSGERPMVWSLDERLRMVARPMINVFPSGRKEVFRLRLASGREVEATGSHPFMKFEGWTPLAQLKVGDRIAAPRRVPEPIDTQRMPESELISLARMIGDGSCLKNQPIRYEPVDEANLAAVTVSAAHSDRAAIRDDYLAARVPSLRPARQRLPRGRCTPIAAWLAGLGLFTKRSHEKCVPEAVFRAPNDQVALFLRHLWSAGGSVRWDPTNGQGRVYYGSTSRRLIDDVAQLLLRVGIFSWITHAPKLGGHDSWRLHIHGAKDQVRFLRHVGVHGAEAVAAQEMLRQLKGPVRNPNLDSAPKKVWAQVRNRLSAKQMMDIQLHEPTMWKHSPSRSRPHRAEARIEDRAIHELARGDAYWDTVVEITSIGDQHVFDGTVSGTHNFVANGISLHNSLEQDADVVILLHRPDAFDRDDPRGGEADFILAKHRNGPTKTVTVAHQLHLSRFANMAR
Kind of experiment: DnaB intein splicing inhibitors, dose response, biochemical, cell-free fluorescence (AID 449749). It is filed as functional.

For experiment [9], the target named is T3, Protein RecA (Mycobacterium tuberculosis, UniProt P9WHJ3).
T3 sequence (P9WHJ3 whole entry): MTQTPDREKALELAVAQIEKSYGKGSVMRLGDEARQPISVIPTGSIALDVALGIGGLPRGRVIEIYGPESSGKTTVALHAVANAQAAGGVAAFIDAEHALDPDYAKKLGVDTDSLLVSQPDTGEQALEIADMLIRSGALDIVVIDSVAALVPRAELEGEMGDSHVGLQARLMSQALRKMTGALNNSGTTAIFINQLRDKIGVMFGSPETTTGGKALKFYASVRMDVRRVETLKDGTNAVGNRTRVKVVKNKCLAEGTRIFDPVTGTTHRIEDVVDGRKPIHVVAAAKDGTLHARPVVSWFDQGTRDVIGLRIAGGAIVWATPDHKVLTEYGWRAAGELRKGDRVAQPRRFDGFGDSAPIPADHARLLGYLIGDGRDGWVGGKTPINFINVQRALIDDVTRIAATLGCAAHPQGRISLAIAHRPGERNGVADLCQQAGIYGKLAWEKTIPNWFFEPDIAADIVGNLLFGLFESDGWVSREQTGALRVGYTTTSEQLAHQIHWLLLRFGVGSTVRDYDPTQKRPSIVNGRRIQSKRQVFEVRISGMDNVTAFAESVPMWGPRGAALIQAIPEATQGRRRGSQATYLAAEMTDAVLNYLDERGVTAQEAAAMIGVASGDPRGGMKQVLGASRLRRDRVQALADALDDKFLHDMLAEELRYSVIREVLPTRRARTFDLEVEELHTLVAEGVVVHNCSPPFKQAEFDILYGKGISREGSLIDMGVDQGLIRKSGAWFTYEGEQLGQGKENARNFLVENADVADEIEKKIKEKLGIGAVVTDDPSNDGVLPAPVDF
Kind of experiment: Fluorescence Cell-Free Homogeneous Dose Retest to Identify Inhibitors of RecA-Intein Splicing Activity. [Related pubchem assays (depositor defined):AID2097, AID2223, AID489010, AID492950]. The class given is functional.

Experiment [10] relates to INS1. Kind of experiment: beta cell apoptosis inhibitors, cytokine rescue, dose response, luminescence, retest (AID 449756).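 Further: cell death triggered by IL-1 beta plus TNF-alpha plus IFN-gamma mixture; protective hits raise ATP signal compared with cytokine alone wells.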 The class given is functional, cell-based. To be noted: Rattus norvegicus.

In the case of `O=[N+]([O-])c1ccc(O)c(C2=NNC(c3ccccc3F)C2)c1` (stereo not given), in experiment [1], the IC50 (usually the concentration at which inhibition is half-maximal) was 15.1 µM (active).

For `Cc1oc2c(c1C(=O)N1CCC(C)CC1)C(=O)c1ccccc1C2=O`, the EC50 (as a rule, the midpoint of the concentration-response curve) in experiment [2] was 17.6 µM (active); in [3], 13.3 µM (active); in experiment [4], 1.92 µM (active); in experiment [5], 1.86 µM (active); in experiment [6] it was > 75 µM (not active); in [7], 16.5 µM (active). Further, the concentration giving a half-maximal response (EC50) in experiment [9] was 1.09 µM (active). The half-maximal activity concentration (AC50) (as a rule, the concentration at which the activity in the assay is half-maximal) is 73.9 µM (active) in experiment [8] and 2.01 µM (active) in experiment [10].
